Laboratory results: ChEMBL document CHEMBL3507680, “University of Dundee, Gates Library screen for HepG2 cell viability”

Assay: Human HepG2 cell viability assay in 384 well format
Assay type: toxicity, cell-based
Parameters: dose 125 nL, time 70.5 hour; concentration not given beside the values
Conditions: HepG2 cells, read-out: Inhibition

Compound | cytotoxicity at 70.5 h
CCOc1ccc(C2CCCN2Cc2nnnn2C2CC2)cc1 (centres undefined) | 0.0309%
COc1cccc(C2CCCN2Cc2nnnn2C2CC2)c1 (centres undefined) | -3.76%
Cc1cnn(CC(C)NCc2nc(-c3ccccn3)no2)c1 (centres undefined) | -7.46%
COc1ccc(CNCCc2cc(F)cc3c2OCOC3)c(OC)c1 | 25.5%
O=C(CN1CCCC1Cn1cncn1)Nc1ccc(Cl)cn1 (centres undefined) | -3.38%
Cc1cnn(CC2CCCCN2CC(=O)Nc2cccnc2)c1 (centres undefined) | 0.635%
CCc1cnc(CN(C)C2CCN(CC3CCN(C(C)=O)CC3)C2)o1 (centres undefined) | 10%
COc1ccc(CNC(=O)NC(C)(CO)C2CC2)c(C(F)(F)F)c1 (centres undefined) | 0.673%
CN(Cc1noc(C2CC2)n1)C1CCN(Cc2nc(C3CC3)no2)C1 (centres undefined) | 0.524%
Cc1n[nH]c(C2CN(C(=O)CCCn3cccn3)CCO2)n1 (centres undefined) | -2.71%
CCc1cnc(CN(C)C2CCN(CC3CCC3)C2)o1 (centres undefined) | 8.96%
N#CC1(C(=O)NCc2ccc(F)cc2)CCCC1 | 3.1%
CN(C)C(CNC(=O)c1cccc(C(N)=O)c1)c1ccccc1Cl (centres undefined) | 3.17%
CC(CN1CCOCC1)NC(=O)c1cc(Cl)c2c(c1)OCO2 (centres undefined) | 2.56%
COc1ccc(NC(=O)N(CCO)Cc2ccsc2)cc1 | -3.63%
COc1ccccc1NC(=O)N(CCO)Cc1ccsc1 | 5.1%
CC(C)c1ncncc1C(=O)NCCN1CCOCC1 | 1.2%
CC(C)c1ncncc1C(=O)NCCN1CCCC1 | 5.71%
CC(C)(C(=O)NCC(=O)NC1CC1)c1ccccc1F | 2.62%
CC(C)(CNC(=O)C(C)(C)c1ccccc1F)C(N)=O | 2.08%
COc1ccc(CNC(=O)NCC(=O)NC2CC2)c(C(F)(F)F)c1 | 21.2%
CCCOc1cc(C)ccc1NC(=O)N(C)C | 4.68%
CN(C)C(CNC(=O)c1ccc(-n2cnnn2)cc1)c1ccccc1Cl (centres undefined) | 5.44%
COc1ccc(CNC(=O)NC2CCN(C)CC2)c(C(F)(F)F)c1 | 2.4%

Compound | cytotoxicity at 70.5 h
CC(CN1CCCC1=O)NC(=O)c1cc(Cl)c2c(c1)OCO2 (centres undefined) | 7.24%
CCN(C(=O)c1cnc(-c2ccc3c(c2)OCO3)s1)C1CC1 | 12.4%
Cc1cccc(S(=O)(=O)NC(=O)CCc2cscn2)c1 | 4.67%
CSc1ccc(NC(=O)NCC2CCCO2)cc1F (centres undefined) | 11.2%
Cc1ccc(S(=O)(=O)NC(=O)CCc2cscn2)cc1Cl | 25.6%
Cc1ccc(C(=O)N2CCCC(n3cncn3)C2)o1 (centres undefined) | 1.71%
CC(C)c1cnc(CN(C)C2CCN(CCS(C)(=O)=O)C2)o1 (centres undefined) | 2.71%
Cc1nn(C)c(N2CCOCC2)c1CNC(C)c1ccccn1 (centres undefined) | 5.82%
Cc1nc(CN(C)C2CCN(Cc3nc(C4CC4)no3)C2)no1 (centres undefined) | -1.35%
CCCc1n[nH]c(C2CN(C(=O)CCn3nc(C)cc3C)CCO2)n1 (centres undefined) | 0.729%
CCCC(=O)NCC(=O)NC(c1ccc(Cl)cc1)C(F)(F)F (centres undefined) | 8.36%
C/C(=C/c1ccccc1)CNCc1cccc(C(N)=O)c1 | -10.9%
Cc1nc(CNC(=O)CCN2CCN(c3ccccn3)CC2)oc1C | 6.4%
Cc1nc(CNC(=O)CCN2CCN(c3ccccc3)CC2)oc1C | 2.07%
CS(=O)(=O)CCNC(=O)N(Cc1ccoc1)C1CCCCC1 | -7.65%
COc1ccc(OCC(=O)NS(=O)(=O)c2ccc(Cl)s2)cc1 | -8.59%
O=C(NCC1(c2cccc(F)c2)CC1)N1CCC2(CCOC2)C1 (centres undefined) | -7.28%
Cc1nc(CNc2ccc(C(=O)NCc3ccco3)cc2C)no1 | -11.5%
N#CCc1ccc(OCC(=O)NS(=O)(=O)c2ccc(Cl)s2)cc1 | -7.69%
Cc1ncc(CNc2ccc(C(=O)NCc3ccco3)cc2C)s1 | 1.95%
O=C(Nc1ccc2c(c1)OC1(CCCC1)O2)c1ccc(=O)[nH]n1 | -6.98%
O=C(NCCN1CCOCC1)N(Cc1ccoc1)C1CCCCC1 | 1.39%
CCNC(=O)N(Cc1ccoc1)C1CCCCC1 | -5.6%
O=C(NCCCNc1ccccn1)NCC1CCS(=O)(=O)C1 (centres undefined) | -8.26%

Compound | cytotoxicity at 70.5 h
CCN(CCNCc1ccc(C#N)cc1)C1CC1 | -6.58%
CC(=O)N(Cc1ccoc1)C1CCCCC1 | -5.21%
CN(CCN1CCCC1=O)CC(c1cccs1)N1CCOCC1 (centres undefined) | -11.7%
CC(CO)(NCc1noc(Cc2ccccc2)n1)C1CCCCC1 (centres undefined) | -0.885%
COCCOc1ccc(CNc2nc3ccccc3o2)cn1 | -10.8%
Cc1ccc(-c2nc(CSCCC(=O)NC(N)=O)co2)c(C)c1 | 22%
Cc1ccc(S(=O)(=O)NC(=O)C2(c3ccc(F)cc3)CCC2)c(C)c1 | 26.9%
CS(=O)(=O)CCC(=O)N(CCc1cccc(F)c1)C1CC1 | -11.4%
Cn1c2ncccc2c(=O)n1CC(=O)NCCC1=CCCCC1 | -2.08%
O=C(NC1CCCN(c2ccccc2Cl)C1)c1c[nH]nn1 (centres undefined) | -10.1%
O=C(NC1CCCN(c2ccccc2Cl)C1)c1nc(=O)[nH][nH]1 (centres undefined) | 25.3%
CSc1ccc(OCCN2CCC(n3cncn3)CC2)cc1 | -13.7%
N#Cc1ccsc1N1CCC(Sc2ncc[nH]2)C1=O (centres undefined) | -7.58%
COc1cc2c(c(OC)c1OC)CCN(CCN1CCCCC1)CC2 | -10.5%
Cc1cc(=O)[nH]cc1C(=O)N1CCN(C)c2ccccc2C1 | -0.391%
CC(C)(CO)CCCNC(=O)NC1(c2ccccc2F)CC1 | 3.5%
CC(=O)N(Cc1ccc(NCc2cnn(C(C)(C)C)c2)cc1)C(C)C | -3.55%
Cc1cc(C(=O)N2CCN(c3ccncc3Cl)CC2)n(C)n1 | -1.44%
COc1cccc(OCC(=O)N(C)c2cccnc2)c1 | 24%
Cc1cccc(C2CCCN2Cc2nc(N)nc(N(C)C)n2)c1C (centres undefined) | -9.17%
CSCC1CCN(C(=O)c2ccccc2NCc2cccnc2)C1 (centres undefined) | -8.12%
Cc1noc(C(C)N2CCc3[nH]c4ccc(Cl)cc4c3C2)n1 (centres undefined) | -8.97%
CS(=O)(=O)CCN(CCc1cccc(F)c1)C1CC1 | -0.807%
COc1cc2c(c(OC)c1OC)CCN(CCn1cncn1)CC2 | -8.44%

Compound | cytotoxicity at 70.5 h
COc1cc2c(c(OC)c1OC)CCN(CCn1nc(C)cc1C)CC2 | -6.93%
COCCc1noc(CNC(C)(CO)C2CCCCC2)n1 (centres undefined) | -0.882%
CC(C)OC(=O)NCc1ccc(NCc2cnn(C(C)(C)C)c2)cc1 | -13.1%
CN(C)C(=O)c1cccn1-c1ccc2c(c1)OCCO2 | -2.2%
O=C(C(c1ccccc1)N1CCc2cncnc2C1)N1CCCCC1 (centres undefined) | 7.48%
Fc1ccc(-c2cnc(CNC3CCc4ncnn4C3)o2)cc1 (centres undefined) | -8.23%
CC(Nc1ccn(Cc2ccccn2)n1)C(=O)NC(C)(C)C (centres undefined) | -7.21%
Fc1ccc(-c2ccc(CNC3CCc4ncnn4C3)o2)cc1 (centres undefined) | -9.49%
Cn1cnc2c1CCN(C(C(=O)N1CCCCC1)c1ccccc1)C2 (centres undefined) | -6.79%
CCc1nnsc1C(=O)N1CCN(CC(O)CC)CC1 (centres undefined) | -10.3%
Cn1nnc2c1CCN(C(C(=O)N1CCCCC1)c1ccccc1)C2 (centres undefined) | -7.33%
CC(C)Oc1ccc(C(O)CNCc2ccccc2C(F)(F)F)cc1 (centres undefined) | -6.08%
CCCS(=O)(=O)CC(=O)N1CCN(CC2CC2)c2ccccc21 | -7.98%
CS(=O)(=O)CCCC(=O)N1CCN(CC2CC2)c2ccccc21 | -7.11%
CC(C)N(C)CC(=O)NCC(O)c1cc2ccccc2s1 (centres undefined) | -7.72%
CN(C)S(=O)(=O)NCC(O)c1cc2ccccc2s1 (centres undefined) | 3.05%
CNC(=O)C1CCCN(C(=O)OC)C1 (centres undefined) | -5.12%
OCC(CO)Nc1ccc2c(Cl)ccc(Cl)c2n1 | -1%
COCCC(=O)N1CCN(CC2CC2)c2ccccc21 | -3.57%
O=C(CNC1CCc2ncnn2C1)N(C1=CCCCC1)C1CC1 (centres undefined) | -2.56%
COc1ccc(N(Cc2ccco2)C(=O)C2CCCO2)cc1F (centres undefined) | -2.54%
CCCN(C(=O)CNC1CCc2ncnn2C1)C1=CCCCC1 (centres undefined) | -10.9%
CC(C)c1cc(C(=O)NCC(O)C2CCOCC2)nn1C(C)(C)C (centres undefined) | 1.71%
COc1cccc(F)c1C(C)NC(=O)NCc1ccnc(C)n1 (centres undefined) | 26.5%

Compound | cytotoxicity at 70.5 h
CN(c1ccc(C#N)cn1)C1CCCN(Cc2noc(C3CC3)n2)C1 (centres undefined) | -0.287%
CC(=O)NCC1CCN(C(=O)c2c[nH]c3cc(Cl)ccc23)CC1 | -10.5%
Cc1nn(C)c(Cl)c1S(=O)(=O)N(C)c1ccc(Cl)cn1 | 0.786%
Cc1cc(N(C)C)nc(NCCn2cccn2)n1 | -10%
Cc1cnn(CCNc2nc(C)cc(N(C)C)n2)c1 | 11.4%
CCCN1C(=O)C2(CCCCC2)NC1c1cn(C)c(=O)n(C)c1=O (centres undefined) | -6.69%
CCSc1cncc(N2CCC(C(=O)Nc3ccccn3)CC2)n1 | -3.08%
CCSc1cncc(N2CCC(C(=O)NC(C)C(C)C)CC2)n1 (centres undefined) | -3.06%
CN(Cc1cccs1)C(=O)Cn1cc(NC(=O)C(C)(C)C)cn1 | -7.51%
CN(CC(F)(F)F)C(=O)Cn1cc(NC(=O)C(C)(C)C)cn1 | 3.96%
COCCC(=O)Nc1cc(CC(C)(C)C)n[nH]1 | -6.88%
O=C(NCC(O)C1CC1)Nc1cnn(Cc2ccccc2)c1 (centres undefined) | -7.29%
CC(C)C(O)CNC(=O)Nc1cnn(C(C)C)c1 (centres undefined) | -8.43%
Cc1cccn2cc(C[S+]([O-])Cc3noc(C(C)C)n3)nc12 (centres undefined) | -1.76%
COc1ccc(F)c(NCc2ccc(C(=O)N(C)C)[nH]2)c1 | 15.8%
Cc1ccc(CNC(=O)N2CCc3ccccc3C2CO)s1 (centres undefined) | -5.32%
Cc1ccc(F)c(NCc2ccc(C(=O)N(C)C)[nH]2)c1 | -3.46%
CCCc1nc(CNc2ccc(F)c(F)c2)no1 | 14.6%
CC(=O)NCC1CCN(C(=O)c2c(C)[nH]c3ccc(Cl)cc23)CC1 | -0.185%
CCc1nc(CNc2ccc(F)c(F)c2)no1 | -7.5%
CC(C)N(CC1CCCN(Cc2ccon2)C1)C(=O)OC(C)(C)C (centres undefined) | -2.83%
N#CCSCCCN1CCC(C(=O)N2CCCCCC2)CC1 | -5.04%
COc1ccc(C)cc1CC(=O)NC(CC(=O)O)c1ccc(F)cc1 (centres undefined) | -18.4%
